US20260034119A1, “5-METHOXY-N,N-[…][…], THEIR […], AND METHODS FOR TREATMENT OF NEUROLOGICAL, […], AND SUBSTANCE USE DISORDERS” (priority 2023, published 2026)
Where “and” joins values, the source holds several entries; their conditions need not be identical. Equal values may be shown once. Read-outs that look alike come from different tables or passages of the source.

Tests used:
[1] = target: T1, human 5-HT1A (Homo sapiens, UniProt P08908); experiment: cell-based
T1 sequence (P08908 1-422): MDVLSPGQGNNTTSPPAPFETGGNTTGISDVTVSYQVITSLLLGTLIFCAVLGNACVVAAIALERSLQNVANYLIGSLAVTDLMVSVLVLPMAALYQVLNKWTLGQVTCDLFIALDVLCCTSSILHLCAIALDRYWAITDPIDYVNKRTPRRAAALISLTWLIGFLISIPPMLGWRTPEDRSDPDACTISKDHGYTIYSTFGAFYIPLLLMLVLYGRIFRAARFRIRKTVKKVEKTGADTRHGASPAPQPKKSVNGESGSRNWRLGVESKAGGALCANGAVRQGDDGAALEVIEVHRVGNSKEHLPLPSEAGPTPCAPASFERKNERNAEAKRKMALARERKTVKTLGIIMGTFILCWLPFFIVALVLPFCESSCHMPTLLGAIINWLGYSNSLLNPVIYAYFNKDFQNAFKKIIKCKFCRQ

[2] = target: T2, 5-HT2A (Homo sapiens, UniProt P28223); experiment: cell-based
T2 sequence (P28223 whole entry): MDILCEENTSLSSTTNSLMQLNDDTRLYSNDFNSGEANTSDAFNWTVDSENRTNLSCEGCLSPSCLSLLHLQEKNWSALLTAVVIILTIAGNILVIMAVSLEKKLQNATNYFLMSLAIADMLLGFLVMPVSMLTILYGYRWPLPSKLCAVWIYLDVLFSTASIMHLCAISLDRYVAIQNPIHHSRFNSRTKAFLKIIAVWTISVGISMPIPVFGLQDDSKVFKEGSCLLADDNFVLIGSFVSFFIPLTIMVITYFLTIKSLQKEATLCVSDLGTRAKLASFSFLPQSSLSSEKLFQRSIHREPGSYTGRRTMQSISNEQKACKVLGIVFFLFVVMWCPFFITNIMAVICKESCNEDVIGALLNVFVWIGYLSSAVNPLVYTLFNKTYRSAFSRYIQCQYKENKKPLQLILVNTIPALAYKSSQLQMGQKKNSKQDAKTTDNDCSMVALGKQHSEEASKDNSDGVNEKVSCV

[3] = target: T3, 5-HT1A (Homo sapiens, UniProt P08908); experiment: cell-based
[4] = target: T3, 5-HT1A; experiment: BRET signaling assay: 5-HT1A-mediated activation of heterotrimeric Gi1 (TRUPATH, HEK293-T)
[5] = target: T1, human 5-HT1A; experiment: 5-HT1A-mediated cAMP reduction assay (GloSensor, HEK293-T)
[6] = target: T2, 5-HT2A
[7] = Activity (5-HT1A cAMP) EC50 (nM), Table 5
[8] = EC50 (nM) 5-HT1A cAMP, Table 6, commercial ligands

Compound | EC50 [1] | EC50 [3] | EC50 [5, 7] [nM] | also measured
COc1ccc2[nH]cc(CCN3CCCC3)c2c1 [Compound 18] | 0.16 nM and 0.166 nM | 2.13 nM | – | EC50 [2]: 81.5 nM
COc1ccc2[nH]cc(CCN3CC=CC3)c2c1 [Compound 21, 3-(2-(2,5-dihydro-1H-pyrrol-1-yl)ethyl)-5-methoxy-1H-indole] | – | 0.257 nM | – | EC50 ([4]; Gi BRET EC50): 0.3 nM; further increase in potency at 5-HT1A ([4]; relative to 5-MeO-PyrT): ~8 fold; EC50 [2]: 9.91 nM
CCN(CC)CCc1c[nH]c2ccc(OC)c(F)c12 [Compound 27, N,N-diethyl-2-(4-fluoro-5-methoxy-1H-indol-3-yl)ethan-1-amine] | 0.21 nM and 0.204 nM | 3.18 nM | – | EC50 [2]: 673 nM
COc1ccc2[nH]cc(CCN(C)C(C)C)c2c1F [Compound 31, N-(2-(4-fluoro-5-methoxy-1H-indol-3-yl)ethyl)-N-methylpropan-2-amine] | 2.98 nM | 14.2 nM | – | EC50 [2]: 152 nM
CCCN(CCc1c[nH]c2ccc(OC)c(F)c12)C(C)C [Compound 32, N-(2-(4-fluoro-5-methoxy-1H-indol-3-yl)ethyl)-N-isopropylpropan-1-amine] | 5.96 nM and 5.89 nM | 16.8 nM and 16.6 nM | – | EC50 [2]: 249 nM
COc1ccc2[nH]cc(CCN(C(C)C)C(C)C)c2c1F [Compound 33, N-(2-(4-fluoro-5-methoxy-1H-indol-3-yl)ethyl)-N-isopropylpropan-2-amine] | 6 nM | 35.8 nM | – | EC50 [2]: 338 nM
COc1ccc2[nH]cc(CCN3CCCC3)c2c1F [Compound 35, 4-fluoro-5-methoxy-3-(2-(pyrrolidin-1-yl)ethyl)-1H-indole] | 0.03 nM and 0.0282 nM | 0.372 nM | – | EC50 [2]: 300 nM
COc1ccc2[nH]cc(CCN3CCCCC3)c2c1F [Compound 36, 4-fluoro-5-methoxy-3-(2-(piperidin-1-yl)ethyl)-1H-indole] | 2.42 nM | 8.97 nM | – | –
CN(C)CCc1c[nH]c2ccc(O)cc12 [Compound 49, Bufotenine, reference compound] | – | 9.29 nM | – | –
CN(C)CCc1c[nH]c2cccc(O)c12 [Compound 52, Psilocin, reference compound] | 512 nM | 1080 nM and 1070 nM | – | –
CN(C)CCc1c[nH]c2ncccc12 [Compound 72, N,N-dimethyl-2-(1H-pyrrolo[2,3-b]pyridin-3-yl)ethan-1-amine] | – | – | 1910 | –
CCN(CC)CCc1c[nH]c2ncccc12 [Compound 73, N,N-diethyl-2-(1H-pyrrolo[2,3-b]pyridin-3-yl)ethan-1-amine] | – | – | 7800 | –
c1cnc2[nH]cc(CCN3CCCC3)c2c1 [Compound 74, 3-(2-(pyrrolidin-1-yl)ethyl)-1H-pyrrolo[2,3-b]pyridine] | – | – | 3240 | –
c1cnc2[nH]cc(CCN3CCCCC3)c2c1 [Compound 75, 3-(2-(piperidin-1-yl)ethyl)-1H-pyrrolo[2,3-b]pyridine] | – | – | 18500 | –
COc1ccc2occ(CCN(C)C)c2c1 [Compound 76, 2-(5-methoxybenzofuran-3-yl)-N,N-dimethylethan-1-amine] | – | – | 178 | –
COc1ccc2occ(CCN3CCCC3)c2c1 [Compound 77, 1-(2-(5-methoxybenzofuran-3-yl)ethyl)pyrrolidine] | – | – | 7.19 | –
COc1ccc2occ(CCN3CCCCC3)c2c1 [Compound 78, 1-(2-(5-methoxybenzofuran-3-yl)ethyl)piperidine] | – | – | 416 | –
COc1ccc2occ(CCN3CC=CCC3)c2c1 [Compound 79, 1-(2-(5-methoxybenzofuran-3-yl)ethyl)-1,2,3,6-tetrahydropyridine] | – | – | 7130 | –
CN(C)CCc1c[nH]c2ccccc12 [DMT] | – | – | – | EC50 ([6]; Gq BRET, 5-HT2A WT): 94.4 nM; pEC50 ([6]; Gq BRET, 5-HT2A WT): (7.03,
CC1(C)CC(=O)N(CCCCN2CCN(c3ncccn3)CC2)C(=O)C1 [Gepiron, Gepirone, reference compound] | – | – | – | Efficacy as %5HT 5-HT1A cAMP ([5]; Table 6, commercial ligands): 95.4 %5HT
c1ccc2c(N3CCNCC3)cccc2c1 [N-(1-naphthyl)piperazine, N-(1-Napthyl)piperazine, reference compound] | – | – | – | EC50 [5, 8]: 50.3 nM; Efficacy as %5HT 5-HT1A cAMP ([5]; Table 6, commercial ligands): 137.0 %5HT
O=C1[C@@H]2[C@H]3CC[C@H](C3)[C@@H]2C(=O)N1CCCCN1CCN(c2ncccn2)CC1 [Tandospirone, reference compound] | – | – | – | EC50 [5, 8]: 1.51 nM; Efficacy as %5HT 5-HT1A cAMP ([5]; Table 6, commercial ligands): 96.3 %5HT
N#Cc1ccc2[nH]cc(CCCCN3CCN(c4ccc5oc(C(N)=O)cc5c4)CC3)c2c1 [Vilazodone, vilazodone, reference compound] | – | – | – | Efficacy as %5HT 5-HT1A cAMP ([5]; Table 6, commercial ligands): 110.5 %5HT; activity at concentrations as low as ([4]; 5-HT1A Gi1 BRET): 30 pM; Emax ([4]; HEK-293T, read-out: Emax, 5-HT1A-mediated activation of Gi1 (BRET)): 97.4%; Efficacy as %5HT 5-HT1A BRET Gi1 ([4]; Table 6, commercial ligands): 97.4 %5HT
CN(C)CCc1c[nH]c2cccc(O)c12 [psilocin, Psilocin] | – | – | – | efficacy at 5-HT2A [6]: ~50 % of that of serotonin
